Data as given in US10064841B1, “Isoandrographolide-19-propionate for treatment of non-alcoholic fatty liver disease (NAFLD)” (KING SAUD UNIVERSITY, priority 2018, dated 2018).

Key:
Format in all cases: cell-based
HepG2 cells = test: MTT toxicity assay; details: 24 h; for GI50: Homo sapiens, test materials 100-500 μM, linear regression
Description: The cytotoxic effect was analyzed by using the MTT assay as described by Mosmann, J. Immunol Methods. 65:55-63 (1983), with minor modification. HepG2 cells were seeded at 5×10^3 cells/well into a 96-well plate and incubated for 24 h. Spent media was then replaced with fresh media containing test materials (100-500 μM) dissolved in DMSO. Vehicle control cells were treated only with DMSO. The plates were incubated in a CO2 incubator for 24 h. The spent media was then replaced with sterile MTT solution (5 mg/mL in PBS at pH—7.4; 100 μL/well) and incubated for another 3 h. The unreacted MTT dye was removed, and the formazan crystals were dissolved with DMSO (200 μL/well) and kept in dark for 30 min. The resulting purple color was quantified by measuring absorbance at 570 nm. The assays were performed thrice and the results were expressed in percentage in comparison to vehicle-treated cells. The following formula was used for calculation.
[formula] GI50 values were calculated using linear regression analysis.

[1] = tested on: palmitate-oleate induced steatotic HepG2 cells; test: Reduction of Oil Red O stain in palmitate-oleate induced steatotic HepG2 cells; details: Homo sapiens, PO-BSA 1 mM, 24 h, test materials 12.5-50 μM
Description: (§1) Induction of steatosis was done in accordance with the protocol of Hetherington and coworkers, Cell Physiol Biochem. 39:1648-62 (2016), with slight modification. HepG2 cells were loaded in 24-well cell culture plates at a density of 4×10^4 cells/well and kept overnight. On the next day, the media were replaced with fresh media containing PO-BSA at 1 mM concentration, with or without test materials (12.5-50 μM) dissolved in DMSO. The cells supplemented with media containing only BSA (instead of PO-BSA) and treated with DMSO (FIG. 2A) served as the normal control. The cells supplemented with media containing PO-BSA and treated with DMSO (FIG. 2B) served as negative control. Fenofibrate (12.5-50 μM) (FIG. 2C) was used as the positive control. After 24 h of treatment, the cells were taken for the analyses.
After treatment, the amount of lipids accumulated into the cells was measured using ORO staining. Briefly, 24 h after treatment, the spent media was removed and the cells were fixed by incubating them with 10% formalin in PBS for 1 h at room temperature. Each well was washed with 60% aqueous isopropanol and was allowed to dry. […] Cell morphology was assessed and photographed (400×) using an inverted microscope. The ORO stain was eluted with 100% isopropanol and measured at 500 nm. […] The results were expressed as the percentage of absorbance of the sample to the absorbance of the control blank.

[2] = tested on: palmitate-oleate induced steatotic HepG2 cells; test: ALT leakage of palmitate-oleate induced HepG2 cells; details: 24 h
Description: as §1
(§2) After treatment, the cells were harvested and lysed using 1×PBS under sonication at 3× for five second intervals at 40V setting over ice. The cell lysates were taken and estimated for TG and protein using commercial spectrophotometric kits. TG levels were normalized to the protein content, and results were expressed as mg TG/g protein. The MDA levels in the cell lysate were estimated using a commercial spectrophotometric kit. The levels of ALT were measured in the spent media, and cell lysate and percent ALT leakage was calculated using the following formula: […]

[3] = tested on: palmitate-oleate induced steatotic HepG2 cells; test: Lipoperoxide formation (MDA/TBARS) in palmitate-oleate induced HepG2 cells; details: 50 μM, 24 h
Description: as §1, §2

[4] = tested on: palmitate-oleate induced steatotic HepG2 cells; test: Triglyceride accumulation in palmitate-oleate induced HepG2 cells; details: 50 μM, 24 h
Description: as §1, §2

Row | Compound | GI50 (HepG2 cells) [µM] | EC50 [1] [µM] | toxicity compared with AN (MTT assay) (HepG2 cells) | ALT leakage [2] | lipoperoxide formation [3] | triglyceride level [4]
1 | C=C1CC[C@@H]2[C@](C)(CO)[C@H](O)CC[C@@]2(C)[C@@H]1C/C=C1/C(=O)OC[C@H]1O [AN, Andrographolide] | 254 | 43.3 |  |  |  | 
2 | CCC(=O)OCC1(C)[C@H](O)CC[C@@]2(C)C3C[C@@H](C4=CCOC4=O)O[C@]3(C)CC[C@H]12 (some centres unmarked) [IAN-19P, isoandrographolide-19-propionate] | 27000 | 8.92 | comparatively lower toxicity than AN | lowered ALT leakage | significantly lowered | come to normal
